# Assay results published in PMC6886544.
# Several values for one entry are separate records, joined by “and”; a condition that tells them apart may be missing. Equal values may be shown once. Read-outs that look alike come from different tables or passages of the source.
# Experiments:
# [1] = test system: HCC827 cells (EGFR-delE746_A750); test: CellTiter-Glo viability assay, HCC827; format: cell-based; details: Homo sapiens; HCC827, 96 hours, CellTiter-Glo; read-out: EGFR CTG EC50 HCC827;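 note: luminescence from ATP content as a measure of metabolically active cells, in RPMI with 10% FBS, compound added as serial dilutions after 24 h of preculture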
# Description: (§1) A431, HCC827, H1975, A549 and H358 cells were obtained from the American Type Culture Collection (ATCC). A431 cells were cultured in DMEM high glucose media (Life Technologies, Germany), and HCC827, H1975, A549 as well as H358 cells were cultured in RPMI media (Life Technologies, Germany), both containing L-Glutamine and were supplemented with 10% FBS (GE Healthcare, Austria) and 1% PenStrep (Life Technologies, Germany) in a humidified incubator at 37 °C and 5% CO2.
# (§2) Cells were seeded at cell numbers that assure linearity and optimal signal intensity (150-300 cells/well, 25 µL) and cultured for 24 hours in serum- and antibiotics-containing media in humidified chambers at 37 °C / 5% CO2. The cells were then treated with EGFR inhibitors in serial
# (§3) Afterwards viability studies were carried out using CellTiter-Glo Assay (Promega, USA) that is a homogeneous method of determining the number of viable cells in culture. It is based on quantification of ATP, indicating the presence of metabolically active cells. For these studies, CellTiter-Glo reagent was prepared according to the instructions of the kit and diluted 1:1 with the complete growth medium suitable for the corresponding cell line. Thereon, reagent and assay plates were equilibrated at room temperature for 20 min. Equal volumes of the reagent were added to the volume of culture medium present in each well (25 µL). The plates were mixed for 2 minutes on an orbital shaker to induce cell lysis. The microplates were then incubated at room temperature for 20 minutes for stabilization of the luminescent signal. Following incubation the luminescence was recorded on an EnVision microplate reader (Perkin Elmer) using 500 ms integration time. The data was then analyzed using the Quattro Research Software Suite for EC50-determination. As quality control the Z’-factor was calculated from 16 positive and negative control values. Only assay results showing a Z’-factor ≥0.5 were used for further analysis. All data points were measured in duplicates for each plate and were replicated in at least two plates.
# [2] = test system: H1975 cells (EGFR-L858R/T790M); test: CellTiter-Glo viability assay, H1975
# EGFR-L858R = EGFR-L858R (Homo sapiens, UniProt P00533, L858R); test: HTRF KinEASE-TK activity-based assay, EGFR-L858R
# A549 cells (KRAS mutant) = test: CellTiter-Glo viability assay, A549; details: Homo sapiens, A549, 96 h, read-out: KRAS CTG EC50 A549
# Description: as §1, §2, §3
# H358 cells (KRAS mutant) = test: CellTiter-Glo viability assay, H358; format: cell-based; details: Homo sapiens, NCI-H358; H358, 96 hours, CellTiter-Glo; read-out: KRAS CTG EC50 H358;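 note: viable cell number estimated from ATP-dependent luminescence following exposure to serially diluted inhibitor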
# [3] = Microsomal stability (phase I), mouse; format: in vitro ADME; details: mouse liver microsomes, up to 60 minutes, 37 °C
# Description: Microsomal stability (phase I) assay.
# Metabolic stability under oxidative conditions was measured in liver microsomes from different
# time up to 50 minutes (HLM) or 60 minutes (MLM) at 37 °C. Based on the compound half-life t1/2,
# the in vitro intrinsic clearance CLint was calculated. […]
# EGFR-L858R/T790M = EGFR-L858R/T790M (Homo sapiens, UniProt P00533, L858R/T790M); test: HTRF KinEASE-TK activity-based assay, EGFR-L858R/T790M; details: EGFR HTRF IC50 L858R/T790M, ATP at Km (4 µM), 30 min preincubation; mean ± SD of three independent measurements in duplicates
# EGFR-wt = EGFR-wt (Homo sapiens, UniProt P00533); test: HTRF KinEASE-TK activity-based assay, EGFR-wt; details: EGFR HTRF IC50 wt, ATP at Km (9.5 µM), 30 min preincubation; mean ± SD of three independent measurements in duplicates
# [4] = test system: A431 cells (EGFR wild type); test: CellTiter-Glo viability assay, A431; details: Homo sapiens, A-431, 96 h, read-out: EGFR CTG EC50 A431, A431, 96 hours, CellTiter-Glo
# Description: as §1, §2, §3
# [5] = Homo sapiens, NCI-H1975, 96 h, read-out: EGFR CTG EC50 H1975, H1975, 96 hours, CellTiter-Glo
# [6] = read-out: EGFR CTG EC50 H1975, H1975, 96 hours, CellTiter-Glo
# Chain of EGFR-L858R (P00533 25-1210 L858R): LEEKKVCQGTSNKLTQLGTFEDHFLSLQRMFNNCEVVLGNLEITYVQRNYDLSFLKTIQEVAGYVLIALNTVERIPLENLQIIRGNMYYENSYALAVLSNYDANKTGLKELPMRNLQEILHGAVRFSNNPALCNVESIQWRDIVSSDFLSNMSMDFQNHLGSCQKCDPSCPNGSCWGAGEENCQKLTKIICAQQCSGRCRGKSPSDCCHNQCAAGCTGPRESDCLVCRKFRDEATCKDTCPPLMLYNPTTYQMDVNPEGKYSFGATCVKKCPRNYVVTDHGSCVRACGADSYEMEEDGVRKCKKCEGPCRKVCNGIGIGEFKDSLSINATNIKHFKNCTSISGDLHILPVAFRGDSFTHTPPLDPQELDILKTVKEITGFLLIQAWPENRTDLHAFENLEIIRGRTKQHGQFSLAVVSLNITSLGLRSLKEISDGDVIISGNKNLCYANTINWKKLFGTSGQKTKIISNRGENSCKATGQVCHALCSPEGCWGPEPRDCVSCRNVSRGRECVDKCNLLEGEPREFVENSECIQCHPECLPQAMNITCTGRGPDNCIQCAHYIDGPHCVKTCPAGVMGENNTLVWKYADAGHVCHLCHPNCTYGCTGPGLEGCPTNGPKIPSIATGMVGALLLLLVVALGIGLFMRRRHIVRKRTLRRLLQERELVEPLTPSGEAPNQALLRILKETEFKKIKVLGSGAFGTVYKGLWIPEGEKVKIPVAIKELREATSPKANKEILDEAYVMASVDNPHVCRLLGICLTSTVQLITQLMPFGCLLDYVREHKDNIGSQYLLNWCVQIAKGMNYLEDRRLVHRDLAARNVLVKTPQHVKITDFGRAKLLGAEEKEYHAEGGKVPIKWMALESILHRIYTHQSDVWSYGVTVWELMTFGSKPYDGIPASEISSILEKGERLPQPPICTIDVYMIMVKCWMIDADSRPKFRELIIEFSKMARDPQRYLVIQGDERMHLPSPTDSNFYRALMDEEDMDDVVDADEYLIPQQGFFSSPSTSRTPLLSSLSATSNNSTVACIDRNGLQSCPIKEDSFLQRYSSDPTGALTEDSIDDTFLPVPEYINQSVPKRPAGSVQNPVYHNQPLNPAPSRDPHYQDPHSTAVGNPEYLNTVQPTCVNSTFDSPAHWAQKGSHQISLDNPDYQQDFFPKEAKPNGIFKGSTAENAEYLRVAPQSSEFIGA
# Chain of EGFR-wt (P00533 25-1210): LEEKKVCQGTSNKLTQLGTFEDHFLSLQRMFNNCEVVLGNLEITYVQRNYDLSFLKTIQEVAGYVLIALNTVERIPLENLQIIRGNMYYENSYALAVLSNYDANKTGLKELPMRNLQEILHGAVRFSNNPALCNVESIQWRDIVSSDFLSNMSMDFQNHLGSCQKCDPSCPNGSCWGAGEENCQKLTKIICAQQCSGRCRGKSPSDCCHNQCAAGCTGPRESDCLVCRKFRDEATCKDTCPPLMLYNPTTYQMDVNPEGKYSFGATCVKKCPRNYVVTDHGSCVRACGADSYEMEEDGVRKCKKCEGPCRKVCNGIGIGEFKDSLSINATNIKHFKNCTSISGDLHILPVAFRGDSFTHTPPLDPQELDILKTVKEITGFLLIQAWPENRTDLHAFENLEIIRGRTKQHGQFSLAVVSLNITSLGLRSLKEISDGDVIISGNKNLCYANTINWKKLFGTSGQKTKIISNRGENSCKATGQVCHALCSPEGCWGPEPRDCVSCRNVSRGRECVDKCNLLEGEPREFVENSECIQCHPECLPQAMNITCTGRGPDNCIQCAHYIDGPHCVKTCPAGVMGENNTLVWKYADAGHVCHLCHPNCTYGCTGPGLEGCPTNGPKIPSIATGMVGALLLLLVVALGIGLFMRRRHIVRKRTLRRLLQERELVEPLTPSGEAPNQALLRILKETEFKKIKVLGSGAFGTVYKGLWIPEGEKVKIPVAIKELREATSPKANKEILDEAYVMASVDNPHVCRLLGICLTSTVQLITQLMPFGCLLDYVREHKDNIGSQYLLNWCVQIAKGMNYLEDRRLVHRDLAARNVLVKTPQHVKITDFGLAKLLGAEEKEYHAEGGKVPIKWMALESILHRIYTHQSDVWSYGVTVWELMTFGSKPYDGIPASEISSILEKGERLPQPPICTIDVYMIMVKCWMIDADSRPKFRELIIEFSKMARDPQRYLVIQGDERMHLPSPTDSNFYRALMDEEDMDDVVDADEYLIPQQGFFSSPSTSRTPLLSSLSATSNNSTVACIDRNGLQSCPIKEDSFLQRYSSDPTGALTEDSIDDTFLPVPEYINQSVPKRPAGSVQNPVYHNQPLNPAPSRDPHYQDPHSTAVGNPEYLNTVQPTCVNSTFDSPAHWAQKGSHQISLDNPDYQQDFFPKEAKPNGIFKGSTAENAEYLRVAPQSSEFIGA
# Chain of EGFR-L858R/T790M (P00533 25-1210 T790M/L858R): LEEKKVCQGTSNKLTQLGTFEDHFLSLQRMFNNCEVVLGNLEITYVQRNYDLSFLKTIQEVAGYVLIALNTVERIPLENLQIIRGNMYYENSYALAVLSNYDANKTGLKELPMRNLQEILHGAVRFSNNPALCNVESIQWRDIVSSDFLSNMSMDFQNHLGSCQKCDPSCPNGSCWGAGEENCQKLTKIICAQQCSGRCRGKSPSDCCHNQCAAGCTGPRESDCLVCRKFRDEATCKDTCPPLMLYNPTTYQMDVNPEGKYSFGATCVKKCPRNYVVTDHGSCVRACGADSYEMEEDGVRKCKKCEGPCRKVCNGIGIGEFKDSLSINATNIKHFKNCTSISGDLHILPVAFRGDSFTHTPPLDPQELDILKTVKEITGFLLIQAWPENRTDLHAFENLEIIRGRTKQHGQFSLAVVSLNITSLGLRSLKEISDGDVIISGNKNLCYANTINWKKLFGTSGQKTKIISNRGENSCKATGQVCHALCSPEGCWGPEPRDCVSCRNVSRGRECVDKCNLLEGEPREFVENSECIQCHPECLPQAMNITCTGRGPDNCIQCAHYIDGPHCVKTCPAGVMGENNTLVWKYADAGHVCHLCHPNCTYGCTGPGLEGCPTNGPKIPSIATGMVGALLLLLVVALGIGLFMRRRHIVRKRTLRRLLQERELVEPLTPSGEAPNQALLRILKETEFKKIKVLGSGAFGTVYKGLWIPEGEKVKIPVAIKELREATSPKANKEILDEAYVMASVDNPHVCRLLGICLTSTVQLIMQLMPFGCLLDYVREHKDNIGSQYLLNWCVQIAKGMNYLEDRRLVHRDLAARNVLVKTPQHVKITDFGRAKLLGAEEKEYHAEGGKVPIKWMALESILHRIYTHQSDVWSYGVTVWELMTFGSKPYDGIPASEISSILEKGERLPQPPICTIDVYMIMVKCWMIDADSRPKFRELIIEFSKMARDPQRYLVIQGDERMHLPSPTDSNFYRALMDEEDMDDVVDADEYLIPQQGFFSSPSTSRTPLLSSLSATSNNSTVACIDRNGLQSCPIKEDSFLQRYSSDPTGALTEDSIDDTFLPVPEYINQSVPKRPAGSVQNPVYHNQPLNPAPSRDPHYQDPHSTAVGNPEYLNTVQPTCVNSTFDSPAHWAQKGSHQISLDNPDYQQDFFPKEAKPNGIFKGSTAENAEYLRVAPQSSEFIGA
smiles,measurement,setting,value
C=CC(=O)Nc1cccc(-c2c(-c3ccc(C)cc3)[nH]c3ncnc(OC)c23)c1 [Compound 10a],EC50,[1],151 ± 10 nM
same,EC50,[2]; [5],2040 ± 88 nM
same,EC50,"[2]; Homo sapiens, NCI-H1975, read-out: EC50 / potency in H1975 cells, H1975, rounded value in running text",~2000 nM
same,IC50,EGFR-L858R,93 ± 54 nM
same,EC50,A549 cells (KRAS mutant),10200 ± 504 nM
same,EC50,H358 cells (KRAS mutant),14200 ± 678 nM
same,microsomal CLint at 3 µM,[3],118 µL/min/mg
same,IC50,EGFR-L858R/T790M,< 200 nM and 175 nM
same,IC50,EGFR-wt,200 ± 148 nM
same,EC50,[4],9860 ± 4250 nM
COc1ncnc2[nH]c(-c3ccc(C)cc3)c(-c3cccc(NC(=O)C=CCN(C)C)c3)c12 [Compound 10b],EC50,[1],282 ± 29 nM
same,EC50,[2]; [5],980 ± 136 nM
same,IC50,EGFR-L858R,34 ± 11 nM
same,EC50,A549 cells (KRAS mutant),7060 ± 3230 nM
same,EC50,H358 cells (KRAS mutant),10700 ± 3520 nM
same,microsomal CLint at 3 µM,[3],26 µL/min/mg
same,IC50,EGFR-L858R/T790M,26 ± 8 nM
same,IC50,EGFR-wt,60 ± 18 nM
same,EC50,[4],2430 ± 991 nM
C=CC(=O)Nc1cccc(-c2c(-c3ccc(N4CCN(C)CC4)cc3)[nH]c3ncnc(OCCCC)c23)c1 [Compound 19d],EC50,[1],< 14 nM
same,EC50,[2]; [5],64 ± 8 nM
same,IC50,EGFR-L858R,< 0.1 nM
same,EC50,A549 cells (KRAS mutant),1130 ± 176 nM
same,EC50,H358 cells (KRAS mutant),1640 ± 813 nM
same,microsomal CLint at 3 µM,[3],50 µL/min/mg
same,IC50,EGFR-L858R/T790M,< 0.1 nM
same,IC50,EGFR-wt,< 0.1 nM
same,EC50,[4],1530 ± 273 nM
C=CC(=O)Nc1cccc(-c2c(-c3ccc(N4CCN(C)CC4)cc3)[nH]c3ncnc(OC(C)C)c23)c1 [Compound 19g],EC50,[1],< 14 nM
same,EC50,[2]; [5],38 ± 19 nM
same,IC50,EGFR-L858R,< 0.1 nM
same,EC50,A549 cells (KRAS mutant),1800 ± 131 nM
same,EC50,H358 cells (KRAS mutant),2700 ± 758 nM
same,microsomal CLint at 3 µM,[3],46 µL/min/mg
same,IC50,EGFR-L858R/T790M,0.1 nM
same,IC50,EGFR-wt,0.1 nM
same,EC50,[4],334 ± 50 nM
C=CC(=O)Nc1cc(-c2c(-c3ccc(N4CCN(C)CC4)cc3)[nH]c3ncnc(OC)c23)ccc1OC(C)COC (stereo not drawn) [Compound 20b],EC50,[1],< 14 nM
same,EC50,[2]; [5],~300 nM
same,EC50,[2]; [6],375 ± 252 nM
same,IC50,EGFR-L858R,< 0.1 nM
same,EC50,A549 cells (KRAS mutant),5850 nM
same,EC50,H358 cells (KRAS mutant),4470 nM
same,microsomal CLint at 3 µM,[3],8 µL/min/mg
same,IC50,EGFR-L858R/T790M,0.1 ± 0.1 nM
same,IC50,EGFR-wt,0.2 ± 0.2 nM
same,EC50,[4],1320 ± 777 nM
C=CC(=O)Nc1cccc(-c2c(-c3ccc(N4CCN(C)CC4)cc3)[nH]c3ncn(CC)c(=O)c23)c1 [Compound 29b],EC50,[1],15 ± 1 nM
same,EC50,[2]; [5],< 200 nM
same,EC50,[2]; [6],144 ± 41 nM
same,IC50,EGFR-L858R,0.2 ± 0.1 nM
same,EC50,A549 cells (KRAS mutant),4300 ± 1250 nM
same,EC50,H358 cells (KRAS mutant),3470 ± 2010 nM
same,microsomal CLint at 3 µM,[3],4 µL/min/mg
same,IC50,EGFR-L858R/T790M,0.5 nM
same,IC50,EGFR-wt,0.4 ± 0.2 nM
same,EC50,[4],739 ± 287 nM
C=CC(=O)Nc1cccc(-c2c(-c3ccc(N4CCN(C)CC4)cc3)[nH]c3ncn(C4CCCC4)c(=O)c23)c1 [Compound 29i],EC50,[1],< 14 nM
same,EC50,[2]; [5],263 ± 46 nM
same,IC50,EGFR-L858R,< 0.1 nM
same,EC50,A549 cells (KRAS mutant),2130 ± 990 nM
same,EC50,H358 cells (KRAS mutant),1940 ± 45 nM
same,microsomal CLint at 3 µM,[3],84 µL/min/mg
same,IC50,EGFR-L858R/T790M,> 1 nM and 1.2 nM
same,IC50,EGFR-wt,0.1 nM
same,EC50,[4],502 ± 166 nM
C=CC(=O)Nc1cccc(-c2c(-c3ccc(N4CCN(C)CC4)cc3)[nH]c3ncn(C4CCCCC4)c(=O)c23)c1 [Compound 29j],EC50,[1],< 14 nM
same,EC50,[2]; [5],77 ± 15 nM
same,IC50,EGFR-L858R,0.2 ± 0.1 nM
same,EC50,A549 cells (KRAS mutant),6050 ± 4600 nM
same,EC50,H358 cells (KRAS mutant),6270 ± 1270 nM
same,microsomal CLint at 3 µM,[3],30 µL/min/mg
same,IC50,EGFR-L858R/T790M,0.4 ± 0.1 nM
same,IC50,EGFR-wt,0.4 ± 0.1 nM
same,EC50,[4],1120 ± 656 nM
